Experimental data published in the supplement of paper PMC11451515.

Tested on: P12-Ichikawa
Experiment: cell viability relative to DMSO control; higher = less cytotoxic
Details: 48 h
In short: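 Three leukemia lines were tested: NOMO1 and SEM at 500 cells/well and P12-Ichikawa at 1000 cells/well. Each was adapted for at least four passages in each medium and seeded in 5 μl in 1536-well plates, and library compounds in DMSO were pin-dosed from 47 μM to 0.79 nM in 11 threefold steps. After 48 h at 37°C, CellTiter-Glo One luminescence was read. Viability is a percentage relative to DMSO wells on each plate, with cell-free wells as background.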

[1] = HPLM + 10% dialyzed FBS, 0.000781 µM
[2] = HPLM + 10% dialyzed FBS, 0.00234 µM
[3] = HPLM + 10% dialyzed FBS, 0.00702 µM
[4] = HPLM + 10% dialyzed FBS, 0.0211 µM
[5] = HPLM + 10% dialyzed FBS, 0.0632 µM
[6] = HPLM + 10% dialyzed FBS, 0.19 µM
[7] = HPLM + 10% dialyzed FBS, 0.569 µM
[8] = HPLM + 10% dialyzed FBS, 1.71 µM
[9] = HPLM + 10% dialyzed FBS, 5.12 µM
[10] = HPLM + 10% dialyzed FBS, 15.4 µM
[11] = HPLM + 10% dialyzed FBS, 46.1 µM
[12] = RPMI 5 mM glucose + 10% FBS, 0.000781 µM
[13] = RPMI 5 mM glucose + 10% FBS, 0.00234 µM
[14] = RPMI 5 mM glucose + 10% FBS, 0.00702 µM
[15] = RPMI 5 mM glucose + 10% FBS, 0.0211 µM
[16] = RPMI 5 mM glucose + 10% FBS, 0.0632 µM
[17] = RPMI 5 mM glucose + 10% FBS, 0.19 µM
[18] = RPMI 5 mM glucose + 10% FBS, 0.569 µM
[19] = RPMI 5 mM glucose + 10% FBS, 1.71 µM
[20] = RPMI 5 mM glucose + 10% FBS, 5.12 µM
[21] = RPMI 5 mM glucose + 10% FBS, 15.4 µM
[22] = RPMI 5 mM glucose + 10% FBS, 46.1 µM
[23] = RPMI 5 mM glucose + 10% dialyzed FBS, 0.000781 µM
[24] = RPMI 5 mM glucose + 10% dialyzed FBS, 0.00234 µM
[25] = RPMI 5 mM glucose + 10% dialyzed FBS, 0.00702 µM
[26] = RPMI 5 mM glucose + 10% dialyzed FBS, 0.0211 µM
[27] = RPMI 5 mM glucose + 10% dialyzed FBS, 0.0632 µM
[28] = RPMI 5 mM glucose + 10% dialyzed FBS, 0.19 µM
[29] = RPMI 5 mM glucose + 10% dialyzed FBS, 0.569 µM
[30] = RPMI 5 mM glucose + 10% dialyzed FBS, 1.71 µM
[31] = RPMI 5 mM glucose + 10% dialyzed FBS, 5.12 µM
[32] = RPMI 5 mM glucose + 10% dialyzed FBS, 15.4 µM
[33] = RPMI 5 mM glucose + 10% dialyzed FBS, 46.1 µM

SMILES | cell viability [1] | cell viability [2] | cell viability [3] | cell viability [4] | cell viability [5] | cell viability [6] | cell viability [7] | cell viability [8] | cell viability [9] | cell viability [10] | cell viability [11] | cell viability [12] | cell viability [13] | cell viability [14] | cell viability [15] | cell viability [16] | cell viability [17] | cell viability [18] | cell viability [19] | cell viability [20] | cell viability [21] | cell viability [22] | cell viability [23] | cell viability [24] | cell viability [25] | cell viability [26] | cell viability [27] | cell viability [28] | cell viability [29] | cell viability [30] | cell viability [31] | cell viability [32] | cell viability [33]
CC/1=C(\O)C(=O)\C=C2/C1=C/C=C3\[C@@]2(C)CC[C@@]4(C)[C@@H]5C[C@@](C)(CC[C@]5(C)CC[C@]34C)C(O)=O | 105% | 96.7% | 103% | 103% | 114% | 109% | 104% | 98.5% | 56.4% | 5.75% | 5.87% | 97.4% | 97.3% | 104% | 96.9% | 102% | 97.2% | 106% | 75.9% | 22.5% | 5.4% | 4.66% | 96.1% | 94.9% | 98.8% | 101% | 95.6% | 94.8% | 97.9% | 71.1% | 16.6% | 5.81% | 4.82%
COc1cc(N2CCC(N(C)C)CC2)ccc1Nc1ncc(Cl)c(Nc2ccccc2P(C)(C)=O)n1 | 110% | 115% | 110% | 113% | 117% | 115% | 87.9% | 40.5% | 13.6% | 18.3% | 30.7% | 112% | 118% | 123% | 122% | 121% | 104% | 102% | 82.2% | 11.9% | 12.5% | 23.6% | 111% | 113% | 117% | 124% | 126% | 127% | 107% | 106% | 30.8% | 19.3% | 31.5%
CCOC(=O)/C=C/[C@H](C[C@@H]1CCNC1=O)NC(=O)[C@@H](CC(=O)[C@@H](NC(=O)c1cc(C)on1)C(C)C)Cc1ccc(F)cc1 | 122% | 115% | 121% | 87.7% | 130% | 127% | 126% | 117% | 121% | 122% | 117% | 114% | 122% | 130% | 76.8% | 135% | 135% | 134% | 136% | 121% | 120% | 119% | 112% | 106% | 118% | 80.2% | 111% | 119% | 115% | 128% | 119% | 124% | 118%
CN(C)C(=O)C(CCN1CCC(O)(c2ccc(Cl)cc2)CC1)(c1ccccc1)c1ccccc1 | 122% | 123% | 133% | 122% | 129% | 125% | 127% | 116% | 127% | 107% | 69.2% | – | – | – | – | – | – | – | – | – | – | – | – | – | – | – | – | – | – | – | – | – | –
OCc1ccc(-c2ccc(-c3ccc(CO)s3)o2)s1 | 116% | 116% | 106% | 116% | 101% | 105% | 102% | 106% | 98% | 97.8% | 87.3% | – | – | – | – | – | – | – | – | – | – | – | 118% | 123% | 130% | 125% | 118% | 109% | 104% | 95.4% | 96.3% | 91% | 78.6%
COc1cc(CNC(=O)CCCC/C=C/C(C)C)ccc1O | 108% | 99.4% | 106% | 102% | 102% | 101% | 13.3% | 11% | 11% | 12.3% | 14.1% | 104% | 105% | 109% | 106% | 104% | 119% | 95.2% | 12.2% | 12.2% | 10.1% | 10.5% | 111% | 103% | 106% | 108% | 116% | 112% | 32.9% | 21.3% | 22.2% | 14.3% | 15.7%
CC(C)C[C@H](NC(=O)[C@@H](O)[C@H](N)Cc1ccccc1)C(=O)O | – | – | – | – | – | – | – | – | – | – | – | – | – | – | – | – | – | – | – | – | – | – | 116% | 130% | 124% | 130% | 130% | 111% | 120% | 115% | 123% | 104% | 32%
CC(C)(O)c1cc2nc(-c3cnc(N)nc3)nc(N3CCOCC3)c2s1 | 120% | 121% | 122% | 125% | 118% | 111% | 108% | 86.2% | 74.1% | 72.6% | 70% | 117% | 127% | 121% | 112% | 114% | 103% | 81.8% | 66.5% | 61% | 49.4% | 48.8% | – | – | – | – | – | – | – | – | – | – | –
